Data taken from patent US4988735A, “Ethylene diamine active cardiovascular therapy” (Simes, priority 1987, dated 1991).
Like-named read-outs stand apart in the source and are kept apart here.

Experiments:
vascular smooth muscle = settings: according to data in European Patent No. 41,757; cited from earlier work
systemic hemodynamics = experiment: Effects on systemic hemodynamics in dogs anaesthetized with pentobarbital (i.v. bolus); assay type: in vivo, dog; settings: for Heart rate: average ± SD, basal: Compound II 167±15, Compound A 178±11; for Heart index: basal: Compound II 1.547±0.147, Compound A 1.820±0.311; for Total peripheral resistances: basal: Compound II 78.497±8.587 (** p<0.01), Compound A 63.985±5.037; for Arterial pressure, minimum: basal: Compound II 101±5 (** p<0.01), Compound A 97±11; for Arterial pressure, medium: basal: Compound II 117±7 (** p<0.01), Compound A 112±12; for Maximum ejection rate: basal: Compound II 126.79±14.41 (* p<0.05), Compound A 138.59±21.74; for Arterial pressure, maximum: basal: Compound II 149±11 (* p<0.05), Compound A 143±14
Procedure: (§1) Catheters for detection of arterial pressure and flow electromagnetic transducers for measuring heart flow (heart index) and coronary flow were inserted in dogs anaesthetized with pentobarbital. The resistances were calculated from the pressure/flow ratio.

[1] = test system: smooth muscle cells isolated from rat aorta; experiment: Inhibition of arterial smooth muscle cell proliferation; assay type: cell-based
Procedure: A culture of smooth muscle cells was isolated by rat aorta incubated in the presence of the tested Compounds II, A, B, C and D for 24, 48 and 72 hours in a minimal essential medium added with bovine fetal serum: at the above intervals the number of cells in the culture was counted by a hemocytometer and compared with the number of cells in a control culture.

[2] = test system: arteriosclerotic plaques in aorta; experiment: Prevention of the formation of arteriosclerotic plaques in rabbits on hypercholesterolemic diet; assay type: in vivo, rabbit
Procedure: Rabbits HY/CR were feeded with iperchloesterolemic diet (2% (cholesterol) for 60 days at the end of which, by planimetry after colouring aorta with Sindon Black, the extent of arteriosclerotic plaques was evaluated. […]

coronary hemodynamics = experiment: Effects on coronary hemodynamics in dogs anaesthetized with pentobarbital (i.v. bolus); assay type: in vivo, dog
Procedure: as §1

[3] = test system: serotonin-induced shape change of rat blood platelets; experiment: Change of the shape of blood platelets induced by serotonin; assay type: cell-based; settings: Platelet, pre-treated, dihydrochloride
Procedure: (c) Change of the shape of blood platelets induced by serotonin. The addition of serontonin to rat blood platelets causes a change in the shape which is measured by an aggregometer as maximum decrease in light transmission.
Compund II (dihydrochloride) was tested by pre-treating the blood platelets with different concentrations of product and the activity was expressed as 50% inhibiting concentration (IC50).

serotonin = experiment: Specific antagonism of serotonin effects on blood platelets and vessels (general statement)
Source text: Evaluation of specific antagonistic activity to serotonin (5TH) effects

[4] = test system: serotonin-enhanced aggregation of dog blood platelets; experiment: Enhancement in aggregation induced by serotonin, dog blood platelets; assay type: cell-based; settings: Canis lupus familiaris, Platelet, dihydrochloride, read-out: Threshold Inhibiting Concentration (TlC)
Procedure: (b) Enhancement in aggregation induced by serotonin.
The addition of 5HT to dog blood platelets causes the aggregation of non-aggregating concentrations of adenosine diphosphate, collagen and adrenaline.
The effects of compound II (dihydrochloride) expressed as single concentration, were evaluated by pre-incubating the blood platelets with different concentrations of the product and expressed as Threshold Inhibiting Concentration (TlC): […]

[5] = test system: serotonin-induced spasm of rabbit aorta; experiment: Antagonism towards vascular spasms induced by serotonin, aorta strips; assay type: cell-based; settings: Oryctolagus cuniculus, Krebs solution 37 °C, fiduciary limits 0.05-0.56
Procedure: (§2) (a) Antagonism towards vascular spasms induced by serotonin. Vascular strips of mesenteric artery and rabbit aorta were put into baths for isolated organ containing Krebs solutions at 37° C. and aerated with a mixture of oxygen and carbon dioxide 95:5.
(§3) The addition of serotonin to the bath causes a spasm which is detected by a strength transducer.
(§4) The antagonistic activity of compound II, evaluated as inhibiting concentration (IC50), gave the following results: […]

[6] = test system: serotonin-induced spasm of mesenteric artery; experiment: Antagonism towards vascular spasms induced by serotonin, mesenteric artery strips; assay type: cell-based; settings: Krebs solution 37 °C, fiduciary limits 0.15-0.31
Procedure: as §2, §3, §4

In the case of COc1cc(CN(C)CCN(C)CCC(c2ccccc2)c2ccccc2)cc(OC)c1OC [Compound A, N,N'-dimethyl-N-(3,4,5-trimethoxybenyl)-N'-(3,3-diphenyl-propyl)-ethylenediamine, reference compound], the “Anti-spasmodic activity (in words)” value (vascular smooth muscle) is given as “most active compound”, the “Hemodynamic effects compared with Compound II (in words)” value (systemic hemodynamics; dog, 1 mg/kg (four times higher dose)) is given as “Comparable effects to compound II” and the “Cardiac output (in words)” value (systemic hemodynamics; dog, Compound A at 1 mg/kg) is given as “decrease in cardiac output”. For the same molecule, the “Effects on peripheral vascular resistances and on arterial pressure (in words)” value (systemic hemodynamics; dog, i.v. bolus 0.25 mg/kg) was “borderline effects”, the Systolic index (systemic hemodynamics; dog, i.v. bolus 0.25 mg/kg, Compound A, basal 10.09±1.29 (* p<0.05)) was 11.11±1.49 ml/beatsm^2 and the Heart rate (systemic hemodynamics; dog, i.v. bolus 0.25 mg/kg) was 147±8 beats/min. The Heart index (systemic hemodynamics; dog, i.v. bolus 0.25 mg/kg) was 1.615±0.237 l/min/m^2, the Total peripheral resistances (systemic hemodynamics; dog, i.v. bolus 0.25 mg/kg) was 45.023±2.849 mmHg/l/min and the “Arterial pressure, minimum” value (systemic hemodynamics; dog, i.v. bolus 0.25 mg/kg) was 50±3 mmHg. For the same molecule, the “Arterial pressure, medium” value (systemic hemodynamics; dog, i.v. bolus 0.25 mg/kg) was 71±8 mmHg, the Maximum ejection rate (systemic hemodynamics; dog, i.v. bolus 0.25 mg/kg) was 135.58±17.55 ml/sec/m^2 and the “Arterial pressure, maximum” value (systemic hemodynamics; dog, i.v. bolus 0.25 mg/kg) was 98 mmHg.

With COc1cc(CN(C)CCN(C)CCC(c2ccc(F)cc2)c2ccc(F)cc2)cc(OC)c1OC [Compound II, N,N'-dimethyl-N-(3,4,5-trimethoxybenzyl)-N'-[3,3-di-(4-fluorophenyl)-propyl]-ethylenediamine] the “Arterial smooth muscle cell proliferation (in words)” value [1] was “inhibit arterial smooth muscle cell proliferation”, the “Inhibition of cell proliferation (in words)” value ([1]; 5 μM, 24, 48 and 72 hours) was “inhibited meaningfully cell proliferation” and the IC50 ([1]; rat aorta smooth muscle cells, 24, 48 and 72 hours (time of the IC50 not stated)) was 10 µM. The “Reduction of the area of plaques in aorta” value ([2]; rabbit, 1 mg/kg s.c. twice a day, 60 days) was 40%, the “Reduction of the formation / area of plaques in aorta” value ([2]; rabbit, 3 mg/kg s.c. twice a day, 60 days) was 60% and the “Prevention of the formation of arteriosclerotic plaques (in words)” value ([2]; rabbits on hypercholesterolemic diet) was “able to prevent the formation of arteriosclerotic plaques”. For the same molecule, the “Coronary vascular resistances (in words)” value (coronary hemodynamics; anesthetized dogs) was “decrease in systemic and coronary vascular resistances”, the “Arterial pressure, minimum” value (coronary hemodynamics; dog, coronary hemodynamics, i.v. bolus 0.25 mg/kg, basal 103±6) was 87±3 mmHg and the “Arterial pressure, medium” value (coronary hemodynamics; dog, coronary hemodynamics, i.v. bolus 0.25 mg/kg, basal 116±4) was 102±5 mmHg. The Heart rate (coronary hemodynamics; dog, coronary hemodynamics, i.v. bolus 0.25 mg/kg, basal 140±14) was 143±15 beats/min, the “Arterial pressure, maximum” value (coronary hemodynamics; dog, coronary hemodynamics, i.v. bolus 0.25 mg/kg, basal 145±3) was 142±5 mmHg and the Average coronary resistances (coronary hemodynamics; dog, i.v. bolus 0.25 mg/kg, basal 2.887±0.381, * p<0.05) was 1.301±0.141 mmHg/ml/min. The “Left circumflex coronary artery flow” value (coronary hemodynamics; dog, i.v. bolus 0.25 mg/kg, basal 41.3±3.7, * p<0.05) was 101.6 ± 10.8 mL/min, the IC50 [3] was 8.35 ± 1.35 µM and the “Antagonism of serotonin effects on blood platelets and vessels (in words)” value (serotonin) was “able to antagonize, in a specific way, the effect of serotonin on blood platelets as well as on vessels”. It also gave a minimal effective concentration ([4]; adenosine diphosphate + serotonin) of 37 ± 20 µM, a minimal effective concentration ([4]; adrenaline + serotonin) of 11 ± 5.4 µM and a minimal effective concentration ([4]; collagen + serotonin) of 5.6 ± 4 µM. The “Cardiac output (in words)” value (systemic hemodynamics; anesthetized dogs) was “increase in cardiac output”, the “Heart rate (in words)” value (systemic hemodynamics; anesthetized dogs) was “without a contemporaneous increase in heart rate” and the “Systemic vascular resistances (in words)” value (systemic hemodynamics; anesthetized dogs) was “decrease in systemic and coronary vascular resistances”. It also gave a Systolic index (systemic hemodynamics; dog, i.v. bolus 0.25 mg/kg, Compound II, basal 9.51±1.24 (* p<0.05)) of 13.39±1.00 ml/beats/m^2, a Heart rate (systemic hemodynamics; dog, i.v. bolus 0.25 mg/kg) of 156±12 beats/min and a Heart index (systemic hemodynamics; dog, i.v. bolus 0.25 mg/kg) of 2.088±0.240 l/min/m^2. For the same molecule, the Total peripheral resistances (systemic hemodynamics; dog, i.v. bolus 0.25 mg/kg) was 44.366±4.200 mmHg/l/min, the “Arterial pressure, minimum” value (systemic hemodynamics; dog, i.v. bolus 0.25 mg/kg) was 72±2 mmHg and the “Arterial pressure, medium” value (systemic hemodynamics; dog, i.v. bolus 0.25 mg/kg) was 89±3 mmHg. The Maximum ejection rate (systemic hemodynamics; dog, i.v. bolus 0.25 mg/kg) was 174.77±10.27 ml/sec/m^2, the “Arterial pressure, maximum” value (systemic hemodynamics; dog, i.v. bolus 0.25 mg/kg) was 130±6 mmHg and the IC50 [5] was 160 nM. The IC50 [6] was 220 nM.
